Measurements published in ChEMBL document CHEMBL1201862, “PubChem BioAssay data set” (2004).
Active and inactive are the calls of the source.

Assays:
Nonstructural protein 1 = Nonstructural protein 1 (Influenza A virus, UniProt Q194T2); type: functional, Influenza A virus (A/California/07/2009(H1N1))
HEK293 = assay: inhibitors of LMP1-driven NF-kB reporter, dose response, cell-based, HEK293, luciferase, cherry-pick (AID 588343); type: functional; conditions: Homo sapiens
Fatty acid synthase [1] = molecular target: T1, Fatty acid synthase (Homo sapiens, UniProt P49327); assay: FAS thioesterase domain inhibitors, dose response, biochemical, endpoint fluorescence intensity, uHTS hits (AID 624327); type: functional;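 further: fluorescence from hydrolysis of an O-methyl fluorescein acyl ester substrate by the enzyme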
Fatty acid synthase [2] = molecular target: T1, Fatty acid synthase; assay: FAS thioesterase domain inhibitors, dose response, biochemical, kinetic fluorescence intensity (AID 624326); type: functional;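 further: rate of fluorescence rise from hydrolysis of a fluorogenic O-methyl fluorescein ester substrate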
SN12K1 = assay: cells; type: functional; conditions: Homo sapiens
P388/ADR = assay: cells; type: functional; conditions: Mus musculus
P388 = assay: cells; type: functional; conditions: Mus musculus
Large T antigen = Large T antigen (Simian virus 40, UniProt P03070); type: functional, Betapolyomavirus macacae;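 further: Confirmatory-stage PubChem screen for compounds that inhibit SV40 T antigen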
[3] = cytotoxicity toward NIH3T3 fibroblasts, dose response, counter-screen, cell-based, ATP luminescence, mouse fibroblasts (AID 2010); type: functional;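 further: cells exposed to compound for about 90 hours before reading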
[4] = inhibitors of intracellular T. cruzi replication, confirmation, NIH3T3 host cells, beta-gal luminescence (AID 2044); type: functional, cell-based;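 further: intracellular parasites grown in NIH/3T3 mouse fibroblasts as host cells; luminescent beta-galactosidase reporter signal from transgenic T. cruzi replicating inside host cells; inhibitors lower the luminescence signal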
[5] = molecular target: T2, Histone-lysine N-methyltransferase NSD2 (Homo sapiens, UniProt O96028); type: biochemical
T2 sequence (O96028 whole entry): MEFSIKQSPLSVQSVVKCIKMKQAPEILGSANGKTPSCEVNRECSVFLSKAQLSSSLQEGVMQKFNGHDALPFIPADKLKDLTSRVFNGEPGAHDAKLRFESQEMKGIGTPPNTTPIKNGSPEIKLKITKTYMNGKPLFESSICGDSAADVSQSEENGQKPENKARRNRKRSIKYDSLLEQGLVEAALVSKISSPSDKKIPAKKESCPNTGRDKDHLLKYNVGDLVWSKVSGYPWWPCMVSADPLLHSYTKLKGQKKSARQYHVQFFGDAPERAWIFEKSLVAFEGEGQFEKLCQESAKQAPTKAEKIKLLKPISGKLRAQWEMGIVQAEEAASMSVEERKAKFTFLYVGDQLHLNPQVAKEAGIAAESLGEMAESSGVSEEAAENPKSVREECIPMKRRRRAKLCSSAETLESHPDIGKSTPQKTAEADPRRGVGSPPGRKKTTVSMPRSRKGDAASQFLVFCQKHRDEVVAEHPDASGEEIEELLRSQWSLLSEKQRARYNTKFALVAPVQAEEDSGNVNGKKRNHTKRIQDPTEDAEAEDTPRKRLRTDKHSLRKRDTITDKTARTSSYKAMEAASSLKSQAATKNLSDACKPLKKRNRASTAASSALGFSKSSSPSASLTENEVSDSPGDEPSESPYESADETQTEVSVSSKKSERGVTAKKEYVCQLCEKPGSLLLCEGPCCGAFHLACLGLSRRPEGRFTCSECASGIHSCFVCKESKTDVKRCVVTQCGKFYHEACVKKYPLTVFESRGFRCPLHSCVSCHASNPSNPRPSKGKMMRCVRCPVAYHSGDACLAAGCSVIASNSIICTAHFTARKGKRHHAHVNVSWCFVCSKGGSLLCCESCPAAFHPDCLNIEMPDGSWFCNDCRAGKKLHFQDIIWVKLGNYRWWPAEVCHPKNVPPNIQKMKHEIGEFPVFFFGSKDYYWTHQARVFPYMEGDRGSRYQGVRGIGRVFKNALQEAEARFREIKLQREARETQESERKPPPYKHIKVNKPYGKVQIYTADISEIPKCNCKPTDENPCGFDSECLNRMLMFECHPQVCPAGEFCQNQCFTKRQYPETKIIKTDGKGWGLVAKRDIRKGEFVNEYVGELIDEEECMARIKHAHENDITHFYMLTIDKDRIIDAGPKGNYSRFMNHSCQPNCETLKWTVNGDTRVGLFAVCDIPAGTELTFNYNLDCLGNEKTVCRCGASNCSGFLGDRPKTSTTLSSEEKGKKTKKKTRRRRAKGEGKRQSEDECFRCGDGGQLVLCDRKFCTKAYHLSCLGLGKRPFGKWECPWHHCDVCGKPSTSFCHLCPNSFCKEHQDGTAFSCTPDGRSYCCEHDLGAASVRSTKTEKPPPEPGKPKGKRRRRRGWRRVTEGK

[6] = molecular target: Peroxisome proliferator-activated receptor gamma/Nuclear receptor coactivator 2 (Homo sapiens, UniProt P37231); type: functional;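 further: agonist potency for raising coactivator recruitment to the receptor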
[7] = molecular target: Peroxisome proliferator-activated receptor gamma/Nuclear receptor coactivator 1 (Homo sapiens, UniProt P37231); type: functional;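 further: agonist potency as compounds enhance coactivator SRC-1 recruitment to PPARgamma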
[8] = molecular target: Peroxisome proliferator-activated receptor gamma/Nuclear receptor coactivator 3 (Homo sapiens, UniProt P37231); type: functional;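 further: agonist potency for raising coactivator recruitment to the receptor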

T1 sequence (P49327 whole entry, the tested form may be a part): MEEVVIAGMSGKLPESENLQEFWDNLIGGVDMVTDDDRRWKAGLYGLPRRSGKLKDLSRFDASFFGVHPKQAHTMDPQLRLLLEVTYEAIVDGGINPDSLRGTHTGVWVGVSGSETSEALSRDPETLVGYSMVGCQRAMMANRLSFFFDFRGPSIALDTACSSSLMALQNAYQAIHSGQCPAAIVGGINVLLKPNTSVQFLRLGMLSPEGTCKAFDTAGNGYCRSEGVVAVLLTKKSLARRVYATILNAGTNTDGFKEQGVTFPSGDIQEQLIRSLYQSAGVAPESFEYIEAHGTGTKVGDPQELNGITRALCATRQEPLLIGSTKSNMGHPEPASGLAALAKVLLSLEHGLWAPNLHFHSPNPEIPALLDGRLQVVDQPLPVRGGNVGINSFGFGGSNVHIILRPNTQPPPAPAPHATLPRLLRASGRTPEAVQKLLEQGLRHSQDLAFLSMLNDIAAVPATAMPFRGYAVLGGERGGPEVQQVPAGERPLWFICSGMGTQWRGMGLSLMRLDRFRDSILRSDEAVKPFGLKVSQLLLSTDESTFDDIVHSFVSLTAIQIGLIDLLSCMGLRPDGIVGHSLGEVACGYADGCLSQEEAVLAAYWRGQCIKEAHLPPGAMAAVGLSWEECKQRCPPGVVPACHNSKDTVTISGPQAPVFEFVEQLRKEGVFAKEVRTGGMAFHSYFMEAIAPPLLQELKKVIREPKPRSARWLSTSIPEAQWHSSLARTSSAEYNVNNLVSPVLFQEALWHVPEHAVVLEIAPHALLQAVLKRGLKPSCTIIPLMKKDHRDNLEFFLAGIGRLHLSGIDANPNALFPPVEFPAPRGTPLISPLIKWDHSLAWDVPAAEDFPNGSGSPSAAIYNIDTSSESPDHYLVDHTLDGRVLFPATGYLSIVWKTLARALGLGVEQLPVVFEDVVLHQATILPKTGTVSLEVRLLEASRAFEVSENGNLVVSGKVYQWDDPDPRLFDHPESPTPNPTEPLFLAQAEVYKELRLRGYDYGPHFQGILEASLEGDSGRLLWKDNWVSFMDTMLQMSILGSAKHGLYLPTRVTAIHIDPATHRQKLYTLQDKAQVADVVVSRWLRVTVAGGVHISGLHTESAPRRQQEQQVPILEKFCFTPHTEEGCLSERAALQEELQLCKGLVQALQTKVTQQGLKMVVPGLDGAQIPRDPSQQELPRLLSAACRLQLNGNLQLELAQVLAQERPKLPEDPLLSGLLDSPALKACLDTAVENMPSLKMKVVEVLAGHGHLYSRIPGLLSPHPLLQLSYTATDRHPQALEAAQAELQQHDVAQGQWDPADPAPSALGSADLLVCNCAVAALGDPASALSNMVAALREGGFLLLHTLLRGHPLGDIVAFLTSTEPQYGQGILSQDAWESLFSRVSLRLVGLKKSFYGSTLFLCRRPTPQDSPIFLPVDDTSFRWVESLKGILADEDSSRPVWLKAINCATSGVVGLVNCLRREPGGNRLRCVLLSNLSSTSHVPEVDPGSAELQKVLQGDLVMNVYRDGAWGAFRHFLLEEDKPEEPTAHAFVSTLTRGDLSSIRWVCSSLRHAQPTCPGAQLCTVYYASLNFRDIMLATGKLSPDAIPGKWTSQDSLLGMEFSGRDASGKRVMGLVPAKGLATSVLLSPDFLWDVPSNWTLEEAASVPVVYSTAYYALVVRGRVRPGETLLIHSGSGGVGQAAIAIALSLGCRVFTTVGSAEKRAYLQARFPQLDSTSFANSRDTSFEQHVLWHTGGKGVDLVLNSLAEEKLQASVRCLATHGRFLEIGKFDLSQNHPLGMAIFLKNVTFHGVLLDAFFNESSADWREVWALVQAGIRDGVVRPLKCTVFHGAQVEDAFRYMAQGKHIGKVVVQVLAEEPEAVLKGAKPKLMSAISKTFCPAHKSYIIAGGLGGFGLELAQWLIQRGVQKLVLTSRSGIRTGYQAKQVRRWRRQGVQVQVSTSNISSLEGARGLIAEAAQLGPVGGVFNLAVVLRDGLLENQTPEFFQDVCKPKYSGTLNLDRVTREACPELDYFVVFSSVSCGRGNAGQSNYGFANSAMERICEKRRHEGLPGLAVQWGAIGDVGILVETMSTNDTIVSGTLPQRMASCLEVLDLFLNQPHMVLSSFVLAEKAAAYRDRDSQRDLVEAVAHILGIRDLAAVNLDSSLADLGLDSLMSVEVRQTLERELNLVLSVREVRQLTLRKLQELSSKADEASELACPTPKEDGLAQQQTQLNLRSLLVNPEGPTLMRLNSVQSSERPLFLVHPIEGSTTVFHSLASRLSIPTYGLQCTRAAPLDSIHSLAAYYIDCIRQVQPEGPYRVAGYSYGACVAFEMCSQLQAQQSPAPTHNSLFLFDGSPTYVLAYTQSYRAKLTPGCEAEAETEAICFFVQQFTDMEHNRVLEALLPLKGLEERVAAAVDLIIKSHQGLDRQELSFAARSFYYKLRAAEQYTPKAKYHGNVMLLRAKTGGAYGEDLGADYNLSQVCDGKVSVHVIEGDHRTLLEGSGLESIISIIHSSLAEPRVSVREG
Large T antigen, sequence (P03070 whole entry): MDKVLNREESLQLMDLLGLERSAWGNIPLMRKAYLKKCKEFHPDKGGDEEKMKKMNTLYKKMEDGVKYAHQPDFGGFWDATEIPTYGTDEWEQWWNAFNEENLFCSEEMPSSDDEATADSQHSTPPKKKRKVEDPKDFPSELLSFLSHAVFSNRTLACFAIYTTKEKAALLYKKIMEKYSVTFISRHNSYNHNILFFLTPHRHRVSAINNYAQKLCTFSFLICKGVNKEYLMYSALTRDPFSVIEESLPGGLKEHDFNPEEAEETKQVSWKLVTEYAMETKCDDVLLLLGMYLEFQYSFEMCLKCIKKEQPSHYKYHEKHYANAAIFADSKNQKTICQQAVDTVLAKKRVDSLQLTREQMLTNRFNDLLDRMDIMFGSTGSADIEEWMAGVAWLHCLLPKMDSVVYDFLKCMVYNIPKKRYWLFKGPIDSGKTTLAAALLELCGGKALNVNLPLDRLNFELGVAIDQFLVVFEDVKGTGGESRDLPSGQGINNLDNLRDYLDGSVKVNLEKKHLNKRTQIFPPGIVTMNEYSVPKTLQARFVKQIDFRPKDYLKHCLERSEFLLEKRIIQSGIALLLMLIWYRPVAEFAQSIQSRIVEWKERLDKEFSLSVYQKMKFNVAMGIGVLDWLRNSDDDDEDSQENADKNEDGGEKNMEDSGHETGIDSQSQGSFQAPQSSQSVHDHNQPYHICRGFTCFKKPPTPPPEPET
Nonstructural protein 1, sequence (Q194T2 whole entry): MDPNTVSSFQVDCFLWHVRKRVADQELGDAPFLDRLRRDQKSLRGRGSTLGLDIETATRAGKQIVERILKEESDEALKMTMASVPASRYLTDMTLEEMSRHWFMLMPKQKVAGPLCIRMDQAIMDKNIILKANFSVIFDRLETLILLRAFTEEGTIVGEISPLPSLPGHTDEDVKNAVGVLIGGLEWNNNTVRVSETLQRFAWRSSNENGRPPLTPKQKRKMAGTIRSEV

**Q.** With O=C(C[n+]1ccccc1)NN=Cc1cc(Br)cc(Br)c1O as the compound, how does the IC50 (Nonstructural protein 1) read?
**A.** Its IC50 is 3.68 µM (active).

**Q.** With CCOc1ccc(/C=N/Nc2cc(N3CCOCC3)ncn2)c(O)c1 as the compound, how does the AC50 (HEK293) read?
**A.** Its AC50 is 15.5 µM (active).

**Q.** For CC(=O)Nc1ccc(NC(=O)c2ccccc2S(=O)(=O)c2ccc([N+](=O)[O-])cc2)cc1, which IC50 (Fatty acid synthase [1]) is on record?
**A.** The IC50 was 13.8 µM (active).

**Q.** And the IC50 (Fatty acid synthase [2])?
**A.** The IC50 was 15.9 µM (active).

**Q.** Which AC50 (HEK293) does the source give for CCn1c2ccccc2c2cc(/C=N/NC(=O)c3ccncc3)ccc21 here?
**A.** Its AC50 is 1.46 µM (active).

**Q.** Which GI50 (SN12K1) does the source give for Cc1c2ccncc2cc2c1[nH]c1ccccc12 here?
**A.** Its GI50 is 3.72 µM (inactive).

**Q.** And the GI50 (P388/ADR)?
**A.** The GI50 was 2.93 µM (inactive).

**Q.** And the GI50 (P388)?
**A.** Its GI50 is 1.61 µM (inactive).

**Q.** What does the source list for CC(C)(C)SCCNC(=O)/C=C/c1cccc([N+](=O)[O-])c1?
**A.** IC50 (Fatty acid synthase [1]): 4.09 µM (active); IC50 (Fatty acid synthase [2]): 6.29 µM (active)

**Q.** For COc1ccc(Nc2ccc([N+](=O)[O-])c3nonc23)c(OC)c1, which IC50 (Nonstructural protein 1) is on record?
**A.** The IC50 was > 100 µM (active).

**Q.** Which IC50 (Large T antigen) does the source give for Oc1ccc(/C=N/N2CCN(c3ccccn3)CC2)cc1 here?
**A.** Its IC50 is 42.5 µM (active).

**Q.** With NCCc1c(-c2ccccc2)n(-c2ccccc2)c2ccccc12 as the compound, how does the EC50 [3] read?
**A.** Its EC50 is > 60 µM (inconclusive).

**Q.** What about the EC50 [4] of the same compound?
**A.** Its EC50 is 2.47 µM (active).

**Q.** And the AC50 [5]?
**A.** The AC50 was > 20 µM (inactive).

**Q.** Which results are given for Cc1n[nH]c(C)c1S(=O)(=O)N(CC(=O)Nc1ccc2c(c1)OCCO2)c1ccc(C(C)C)cc1?
**A.** EC50 [6]: > 79.4 µM (not active); EC50 [7]: > 79.4 µM (not active); EC50 [8]: > 79.4 µM (not active)

**Q.** With CCN1CC2CCCC3(C1)C(=O)NC1(CCCCC1)N=C23 (stereo unspecified) as the compound, how does the AC50 [5] read?
**A.** Its AC50 is 15 µM (active).

**Q.** Which results are given for Cc1c2ccnc(C(N)=O)c2c(C)c2c1[nH]c1ccccc12?
**A.** GI50 (SN12K1): 5.46 µM (inactive); GI50 (P388/ADR): 12.9 µM (inactive); GI50 (P388): 2.9 µM (inactive)

**Q.** With Cc1nnc(NN/C=C2\C(=O)N(c3cccc(C(F)(F)F)c3)C(=O)c3ccccc32)nc1O as the compound, how does the IC50 (Large T antigen) read?
**A.** The IC50 was 15.2 µM (active).

**Q.** With CCN(CC)S(=O)(=O)c1cccc(NC(=O)COC(=O)c2nnc(O)c3ccccc23)c1 as the compound, how does the EC50 [6] read?
**A.** The EC50 was > 79.4 µM (not active).

**Q.** And the EC50 [7]?
**A.** The EC50 was > 79.4 µM (not active).

**Q.** And the EC50 [8]?
**A.** Its EC50 is > 79.4 µM (not active).
